# Like-named read-outs stand apart in the source and are kept apart here.
# What was measured:
# BT-549 = assay: CellTiter-Glo Viability Assay, breast cancer; format: cell-based; settings: Homo sapiens, 96 h; BT-549, breast cancer, four days; read-out: EC50
# T47D = assay: CellTiter-Glo Viability Assay, breast cancer; format: cell-based; settings: Homo sapiens, 96 h, breast cancer, four days, read-out: EC50
# HCC1599 = assay: CellTiter-Glo Viability Assay, breast cancer; format: cell-based; settings: Homo sapiens, 96 h; HCC1599, breast cancer, four days; read-out: EC50
# DU4475 = assay: CellTiter-Glo Viability Assay, breast cancer; format: cell-based; settings: Homo sapiens, DU-4475, 96 h; DU4475, breast cancer, four days; read-out: EC50
# MCF7 = assay: CellTiter-Glo Viability Assay, breast cancer; format: cell-based; settings: Homo sapiens, 96 h; MCF7, breast cancer, four days; read-out: EC50
# MDA-MB-231-Luc = assay: CellTiter-Glo Viability Assay, breast cancer; format: cell-based; settings: Homo sapiens, 96 h; MDA-MB-231-Luc, breast cancer, four days; read-out: EC50
# ZR-75-1 = assay: CellTiter-Glo Viability Assay, breast cancer; format: cell-based; settings: Homo sapiens, 96 h; ZR-75-1, breast cancer, four days; read-out: EC50
# CAMA1 = assay: CellTiter-Glo Viability Assay, breast cancer; format: cell-based; settings: Homo sapiens, CAMA-1, 96 h; CAMA1, breast cancer, four days; read-out: EC50
# [1] = system: liver cancer (3 cell lines); assay: CellTiter-Glo Viability Assay, liver cancer; format: cell-based; settings: Homo sapiens, inhibition of cancer cell proliferation
# [2] = system: ovarian cancer (4 cell lines); assay: CellTiter-Glo Viability Assay, ovarian cancer; format: cell-based; settings: Homo sapiens, inhibition of cancer cell proliferation
# CLK2 = molecular target: T1, CLK2 (Homo sapiens, UniProt P49760); assay: CLK2 kinase activity assay (Z-lyte, Ser/Thr 6 peptide); format: biochemical; settings: recombinant CLK2 kinase, ATP 60 μM; read-out: EC50
# T1 construct: purchased Thermo Fisher (Life Technologies), Z'-LYTE Kinase Assay Kits
# Description: All reactions were performed in duplicate.
# CLK3 = CLK3 (Homo sapiens, UniProt P49761); assay: CLK3 kinase activity assay (Z-lyte, Ser/Thr 18 peptide)
# [3] = system: colorectal cancer (6 cell lines); assay: CellTiter-Glo Viability Assay, colorectal cancer; format: cell-based; settings: Homo sapiens, inhibition of cancer cell proliferation
# [4] = system: pancreatic cancer (8 cell lines); assay: CellTiter-Glo Viability Assay, pancreatic cancer; format: cell-based; settings: Homo sapiens, inhibition of cancer cell proliferation
# all 50 cell lines = assay: CellTiter-Glo Viability Assay, average across all cell lines; format: cell-based; settings: Homo sapiens; across all 50 cell lines; read-out: average EC50 for inhibition of cancer cell proliferation
# Method in brief: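 Human cancer cell lines from breast, colorectal, haematopoietic/lymphoid, liver, lung, ovarian, pancreatic and prostate tumours were seeded at 300-3,000 cells/well and exposed to compound in duplicate for four days at 37° C, 5% CO2. Viable cells were measured by ATP luminescence; EC50 values came from dose-response curves.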
# [5] = system: lung cancer (4 cell lines); assay: CellTiter-Glo Viability Assay, lung cancer; format: cell-based; settings: Homo sapiens, inhibition of cancer cell proliferation
# [6] = system: prostate cancer (5 cell lines); assay: CellTiter-Glo Viability Assay, prostate cancer; format: cell-based; settings: Homo sapiens
# [7] = system: haematopoietic & lymphoid tumors (13 cell lines); assay: CellTiter-Glo Viability Assay, haematopoietic & lymphoid tumors; format: cell-based; settings: Homo sapiens, inhibition of cancer cell proliferation
# [8] = SNU-398, SNU398 cell line, read-out: Liver cancer, EC50 SNU398
# [9] = HEPG2 cell line, read-out: Liver cancer, EC50 HEPG2
# [10] = PLC/PRF/5 cell line, read-out: Liver cancer, EC50 PLC/PRF/5
# [11] = PA-1, PA1 cell line, read-out: Ovarian cancer, EC50 (μM) PA1
# [12] = TOV112D, TOV-112D cell line, read-out: Ovarian cancer, EC50 (μM) TOV-112D
# [13] = OV-90 cell line, read-out: Ovarian cancer, EC50 (μM) OV-90
# [14] = OVCAR-3 cell line, read-out: Ovarian cancer, EC50 (μM) OVCAR-3
# [15] = HCT-116, HCT116 cell line, read-out: Colorectal cancer, EC50 (μM) HCT116
# [16] = HT-29, HT29 cell line, read-out: Colorectal cancer, EC50 (μM) HT29
# [17] = SW-620, SW620 cell line, read-out: Colorectal cancer, EC50 (μM) SW620
# [18] = DLD-1 cell line, read-out: Colorectal cancer, EC50 (μM) DLD-1
# [19] = SW48 cell line, read-out: Colorectal cancer, EC50 (μM) SW48
# [20] = SW480 cell line, read-out: Colorectal cancer, EC50 (μM) SW480
# [21] = BXPC-3, BxPC3 cell line, read-out: Pancreatic cancer, EC50 BxPC3
# [22] = CAPAN-1, Capan1 cell line, read-out: Pancreatic cancer, EC50 Capan1
# [23] = Capan-2, Capan2 cell line, read-out: Pancreatic cancer, EC50 Capan2
# [24] = MIA PaCa-2 cell line, read-out: Pancreatic cancer, EC50 MIA PaCa-2
# [25] = PANC 05.04 cell line, read-out: Pancreatic cancer, EC50 PANC 05.04
# [26] = PANC-1 cell line, read-out: Pancreatic cancer, EC50 PANC-1
# [27] = UPAFII cell line, read-out: Pancreatic cancer, EC50 UPAFII
# [28] = A-427, A427 cell line, read-out: Lung cancer, EC50 (μM) A427
# [29] = HCC78, HCC-78 cell line, read-out: Lung cancer, EC50 (μM) HCC-78
# [30] = NCI-H460 cell line, read-out: Lung cancer, EC50 (μM) NCI-H460
# [31] = NCI-H522 cell line, read-out: Lung cancer, EC50 (μM) NCI-H522
# [32] = DU-145, read-out: Prostate cancer EC50 Du-145
# [33] = PC-3, PC3 cell line, inhibition of cancer cell proliferation, read-out: Prostate cancer EC50 PC3
# [34] = 22Rv1 cell line, inhibition of cancer cell proliferation, read-out: Prostate cancer EC50 22Rv1
# [35] = LNCap clone FGC cell line, inhibition of cancer cell proliferation, read-out: Prostate cancer EC50 LNCap clone FGC
# [36] = VCaP (Sigma) cell line, inhibition of cancer cell proliferation, read-out: Prostate cancer EC50 VCaP (Sigma)
# [37] = DND41, DND-41 cell line, read-out: Haematopoietic & Lymphoid tumors, EC50 (μM) DND-41
# [38] = MV4-11, MV-4-11 cell line, read-out: Haematopoietic & Lymphoid tumors, EC50 (μM) MV-4-11
# [39] = Rec1, REC-1 cell line, read-out: Haematopoietic & Lymphoid tumors, EC50 (μM) REC-1
# [40] = SU-DHL-4, SUDHL4 cell line, read-out: Haematopoietic & Lymphoid tumors, EC50 (μM) SUDHL4
# [41] = HL-60 cell line, read-out: Haematopoietic & Lymphoid tumors, EC50 (μM) HL-60
# [42] = JM1 cell line, read-out: Haematopoietic & Lymphoid tumors, EC50 (μM) JM1
# [43] = JURKAT, Clone E6-1 cell line, read-out: Haematopoietic & Lymphoid tumors, EC50 (μM) JURKAT, Clone E6-1
# [44] = JeKo-1 cell line, read-out: Haematopoietic & Lymphoid tumors, EC50 (μM) JeKo-1
# [45] = KASUMI-1 cell line, read-out: Haematopoietic & Lymphoid tumors, EC50 (μM) KASUMI-1
# [46] = Loucy cell line, read-out: Haematopoietic & Lymphoid tumors, EC50 (μM) Loucy
# [47] = MOLT-4 cell line, read-out: Haematopoietic & Lymphoid tumors, EC50 (μM) MOLT-4
# [48] = TF-1 cell line, read-out: Haematopoietic & Lymphoid tumors, EC50 (μM) TF-1
# [49] = TOLEDO cell line, read-out: Haematopoietic & Lymphoid tumors, EC50 (μM) TOLEDO
# Sequence of CLK3 (P49761 whole entry): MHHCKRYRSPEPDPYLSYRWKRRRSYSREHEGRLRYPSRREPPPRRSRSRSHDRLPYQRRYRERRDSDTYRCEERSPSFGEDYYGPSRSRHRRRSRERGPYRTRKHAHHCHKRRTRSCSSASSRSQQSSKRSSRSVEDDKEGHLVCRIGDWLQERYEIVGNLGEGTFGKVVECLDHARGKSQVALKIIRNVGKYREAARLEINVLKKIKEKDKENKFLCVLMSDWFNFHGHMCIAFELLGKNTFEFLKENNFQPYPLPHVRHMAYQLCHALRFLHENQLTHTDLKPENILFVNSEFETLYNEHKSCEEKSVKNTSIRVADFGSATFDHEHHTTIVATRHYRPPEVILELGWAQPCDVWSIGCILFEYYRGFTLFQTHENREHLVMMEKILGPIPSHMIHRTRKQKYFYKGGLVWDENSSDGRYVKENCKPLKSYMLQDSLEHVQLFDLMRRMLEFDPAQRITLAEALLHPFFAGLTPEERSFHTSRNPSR
# T1 sequence (P49760 whole entry): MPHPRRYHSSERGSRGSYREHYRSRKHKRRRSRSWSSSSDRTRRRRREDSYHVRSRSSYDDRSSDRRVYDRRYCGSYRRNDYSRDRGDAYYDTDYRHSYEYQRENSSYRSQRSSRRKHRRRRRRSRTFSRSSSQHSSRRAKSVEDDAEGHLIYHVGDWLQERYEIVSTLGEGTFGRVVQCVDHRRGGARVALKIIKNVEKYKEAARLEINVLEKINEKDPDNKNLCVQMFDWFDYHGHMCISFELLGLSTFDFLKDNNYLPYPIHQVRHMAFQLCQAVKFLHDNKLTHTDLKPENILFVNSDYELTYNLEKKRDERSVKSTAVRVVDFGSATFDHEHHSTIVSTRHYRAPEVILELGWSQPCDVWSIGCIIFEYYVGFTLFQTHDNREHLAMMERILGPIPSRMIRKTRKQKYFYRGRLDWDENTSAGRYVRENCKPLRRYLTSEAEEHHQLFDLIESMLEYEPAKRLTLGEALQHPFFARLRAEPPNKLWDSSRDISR
smiles,measurement,setting,value
CN1CCN(c2cc(Nc3ncc4c(-c5ccc6ncccc6c5)c[nH]c4n3)ccn2)CC1 [Compound 67],EC50,BT-549,731 nM
same,EC50,T47D,4960 nM
same,EC50,HCC1599,38 nM
same,EC50,DU4475,247 nM
same,EC50,MCF7,3700 nM
same,EC50,MDA-MB-231-Luc,2700 nM
same,EC50,ZR-75-1,2920 nM
same,EC50,CAMA1,1340 nM
same,EC50,[1]; [8],71 nM
same,EC50,[1]; [9],3290 nM
same,EC50,[1]; [10],3350 nM
same,EC50,[2]; [11],0.768 µM
same,EC50,[2]; [12],0.421 µM
same,EC50,[2]; [13],2.86 µM
same,EC50,[2]; [14],0.291 µM
same,EC50,CLK2,2.4 nM
same,EC50,CLK3,10.3 nM
same,EC50,[3]; [15],0.318 µM
same,EC50,[3]; [16],1.2 µM
same,EC50,[3]; [17],0.156 µM
same,EC50,[3]; [18],0.264 µM
same,EC50,[3]; [19],0.147 µM
same,EC50,[3]; [20],0.644 µM
same,EC50,[4]; [21],660 nM
same,EC50,[4]; [22],583 nM
same,EC50,[4]; [23],1120 nM
same,EC50,[4]; [24],267 nM
same,EC50,[4]; [25],3470 nM
same,EC50,[4]; [26],1900 nM
same,EC50,[4]; [27],511 nM
same,EC50,all 50 cell lines,1070 nM
same,EC50,[5]; [28],0.502 µM
same,EC50,[5]; [29],1.44 µM
same,EC50,[5]; [30],0.919 µM
same,EC50,[5]; [31],0.097 µM
same,EC50,[6]; [32],654 nM
same,EC50,[6]; [33],860 nM
same,EC50,[6]; [34],348 nM
same,EC50,[6]; [35],4690 nM
same,EC50,[6]; [36],756 nM
same,EC50,[7]; [37],0.221 µM
same,EC50,[7]; [38],0.032 µM
same,EC50,[7]; [39],0.149 µM
same,EC50,[7]; [40],0.241 µM
same,EC50,[7]; [41],1.54 µM
same,EC50,[7]; [42],0.062 µM
same,EC50,[7]; [43],0.298 µM
same,EC50,[7]; [44],0.139 µM
same,EC50,[7]; [45],0.11 µM
same,EC50,[7]; [46],0.28 µM
same,EC50,[7]; [47],0.381 µM
same,EC50,[7]; [48],0.789 µM
same,EC50,[7]; [49],0.108 µM
CN1CCC(Oc2ccc(C(=O)Nc3cc4cc(-c5cnn(C)c5)ccc4cn3)cc2)CC1 [Compound 68],EC50,BT-549,421 nM
same,EC50,T47D,1180 nM
same,EC50,HCC1599,224 nM
same,EC50,DU4475,487 nM
same,EC50,MCF7,1820 nM
same,EC50,MDA-MB-231-Luc,1110 nM
same,EC50,ZR-75-1,1370 nM
same,EC50,CAMA1,901 nM
same,EC50,[1]; [8],134 nM
same,EC50,[1]; [9],597 nM
same,EC50,[1]; [10],1270 nM
same,EC50,[2]; [11],0.537 µM
same,EC50,[2]; [12],0.327 µM
same,EC50,[2]; [13],1.48 µM
same,EC50,[2]; [14],0.232 µM
same,EC50,CLK2,0.6 nM
same,EC50,CLK3,13.6 nM
same,EC50,[3]; [15],0.389 µM
same,EC50,[3]; [16],0.774 µM
same,EC50,[3]; [17],0.206 µM
same,EC50,[3]; [18],0.35 µM
same,EC50,[3]; [19],0.19 µM
same,EC50,[3]; [20],0.546 µM
same,EC50,[4]; [21],443 nM
same,EC50,[4]; [22],811 nM
same,EC50,[4]; [23],1650 nM
same,EC50,[4]; [24],279 nM
same,EC50,[4]; [25],1040 nM
same,EC50,[4]; [26],903 nM
same,EC50,[4]; [27],435 nM
same,EC50,all 50 cell lines,632 nM
same,EC50,[5]; [28],0.506 µM
same,EC50,[5]; [29],1.14 µM
same,EC50,[5]; [30],0.709 µM
same,EC50,[5]; [31],0.277 µM
same,EC50,[6]; [32],652 nM
same,EC50,[6]; [33],602 nM
same,EC50,[6]; [34],449 nM
same,EC50,[6]; [35],651 nM
same,EC50,[6]; [36],1380 nM
same,EC50,[7]; [37],0.571 µM
same,EC50,[7]; [38],0.07 µM
same,EC50,[7]; [39],0.162 µM
same,EC50,[7]; [40],0.523 µM
same,EC50,[7]; [41],0.958 µM
same,EC50,[7]; [42],0.165 µM
same,EC50,[7]; [43],0.561 µM
same,EC50,[7]; [44],0.176 µM
same,EC50,[7]; [45],0.257 µM
same,EC50,[7]; [46],0.317 µM
same,EC50,[7]; [47],0.546 µM
same,EC50,[7]; [48],0.649 µM
same,EC50,[7]; [49],0.183 µM

# From patent US20220062240A1, “METHODS OF TREATING CANCER USING A CLK INHIBITOR” (BioSplice Therapeutics, Inc., priority 2018, published 2022)
